Tests used:
cantharidin mouse ear = experiment: Mouse Cantharidin Screen (topical anti-inflammatory activity, mouse ear); assay type: in vivo; conditions: Mouse Cantharidin Data (24 h)
Protocol: Compounds were tested for topical anti-inflammatory activity in a cantharidin mouse ear screen, modified from Swingle et al [Swingle, K. F., Reiter, M. J. and Schwartzmiller, D. H., Arch. Int. Pharmacodyn., (1981), 254, 168-176].
25 μg cantharidin (in 10 μl THF/MeOH) was applied to both ears. Compound, in the same solvent, was applied at the same time, to the left ear only. Ears were weighed 24 h after cantharidin application. Percentage inhibition of the acute inflammatory swelling refers to the increase in weight of left ears (cantharidin plus compound) compared with solvent-treated negative controls, as a proportion of the increase in weight of right ears (cantharidin alone) over similar controls.

5-Lipoxygenase = experiment: RBL-1 5-Lipoxygenase Screen; assay type: biochemical; conditions: 20 μM; 10,000 g supernatant from RBL-1 cells, 29° C.
Protocol: 5-Lipoxygenase enzyme was prepared as a 10,000 g supernatant from RBL-1 cells by the method of Jakschik [Jakschik, B. A., Sun, F. F., Lee, L. M. and Steinhoff, M. M., 1980, Biochem. Biophys. Res. Comm. 95, 103]. The 10,000 g supernatant was diluted with homogenization buffer to the equivalent of 1.5-2.5×10^7 cells ml^-1 and made 2 mM with respect to CaCl2. Aliquots of 0.5 ml were then dispensed into tubes, and incubated at 29° C. with 5 γl ethanol or compound in ethanol at the desired concentration for 2 min. Then [1-^14 C] arachidonic acid was added in buffer to give a final concentration of 6.3 μm and 0.2 μCi per incubation, and the reaction continued at 29° C. for 2 min. The reaction was terminated by adding 1 ml of acetone and cooling on ice, 0.5 ml of ice-cold saline and 10 μl of 2N formic acid were added, and the mixture was extracted with 2×2 ml of chloroform. The extract was stored under N2 at -20° C. until analysis by chromatography. Activity was measured as the percentage of total radioactivity found in 5-HETE and 5,12-diHETE, and inhibition calculated as the decrease in formation of the sum of these two species in compound-treated incubates relative to control incubates.

[1] = test system: mouse sensitised to oxazolone; experiment: Mouse Oxazolone Screen (topical anti-inflammatory activity); assay type: in vivo; conditions: ear, compound 1 h before oxazolone challenge, ear weights 24 h later, r^2 =0.96
Protocol: Compounds were tested for topical anti-inflammatory activity in a screen using the mouse sensitised to oxazolone, by a method modified from that of Dietrich and Hess [Dietrich, F. M., and Hess, R., Int. Arch. Allergy, (1970), 38, 246-259].
Mice were sensitised with oxazolone (2 mg in 20 μl ethanol) on a shaved area of the abdomen. Five days later, the animals received 10 μl THF/MeOH (1:1 v/v) on the right ear, and the test compound in the same solvent on the left ear. One hour later, the animals were challenged with 100 μg oxazolone in 10 μl acetone on each ear. Ear weights were measured 24 h later. Percentage inhibition of the inflammatory swelling refers to the increase in weight of left ears (oxazolone plus compound) compared with solvent-treated negative controls, as a proportion of the increase in weight of right ears (oxazolone alone) over similar controls.

mice = conditions: in mice; J. Heterocycl. Chem. 1971, 8(6), 1035-7; cited from earlier work

Cc1cc(Nc2ccc(C#N)cc2)c2[nH]ncc2n1 [Example 1, 7-(4-Cyanoanilino)-5-methyl-1H-pyrazolo[4,3-b]pyridine]
% Inhibition (cantharidin mouse ear; 300 μg/ear): 29%

Cc1cc(Nc2ccc(O)cc2)c2[nH]ncc2n1 [Example 4, 7-(4-Hydroxyanilino)-5-methyl-1H-pyrazolo[4,3-b]pyridine]
% Inhibition (cantharidin mouse ear; 200 μg/ear): 71% | inhibition (decrease in formation of 5-HETE and 5,12-diHETE) (5-Lipoxygenase): 66% | ED50 [1]: 240 μg/ear

Cc1cc(Nc2cccc(O)c2)c2[nH]ncc2n1 [Example 5, 7-(3-Hydroxyanilino)-5-methyl-1H-pyrazolo[4.3-b]pyridine]
% Inhibition (cantharidin mouse ear; 500 μg/ear): 49%

Cc1cc(Nc2cccc(O)c2)c2c(cnn2C)n1 [Example 8, 1,5-Dimethyl-7-(3-hydroxyanilino)-1H-pyrazolo[4,3-b]pyridine]
% Inhibition (cantharidin mouse ear; 278 μg/ear): 31%

CC(=O)N(C(C)=O)c1cc(C)nc2c(C)n[nH]c12 [compound wherein R is NAc2]
CNS antidepressant activity (mice): CNS antidepressant activity

From patent US4576952A, “Pyrazolopyridine derivatives and their use as anti-inflammatory and/or anti-allergic agents” (Beecham Group p.l.c., priority 1984, dated 1986)
